Measured values from patent EP4778922A1, “BICYCLIC COMPOUND, AND PREPARATION METHOD THEREFOR AND PHARMACEUTICAL USE THEREOF” (Shanghai Jeyou Pharmaceutical Co., Ltd., priority 2023, dated 2025).

Tested on: 22RV1 cells
Experiment: Cell proliferation inhibition assay in 22RV1 cells (CellTiter-Glo, 7 days)
Assay type: cell-based, human
Details: Homo sapiens, 168 h
Protocol: • 1. The human prostate cancer cell lines 22RV1 and LNCaP were purchased from ATCC. […] The cell concentration was adjusted to an appropriate concentration (determined based on the results of cell density optimization experiments), and the cells were seeded into a 96-well plate. A 100 µL cell suspension was added, resulting in 3000 cells per well. […] On the second day, for 22Rv1 cells, test compounds at different concentrations were added, and the cells were incubated at 37°C in a 5% CO2 incubator for 7 days; for LNCaP cells, test compounds at different concentrations were added first, and after 1 hour of treatment, 0.2 nM DHT was added. The cells were then incubated at 37°C in a 5% CO2 incubator for 7 days. • 4. After the incubation period, a volume of CellTiter-Glo detection reagent equal to the volume of the culture medium was added to each well. The plate was shaken and mixed thoroughly for 5 minutes, then incubated at room temperature for 10 minutes. Readings were taken using a PerkinElmer EnVision microplate reader. • 5.
The IC50 curve was fitted and the IC50 value was calculated using the software GraphPad Prism 8 with the calculation formula XY-analysis/Nonlinear regression (curve fit)/Dose response-Inhibition/log (inhibitor) vs. response-Variable slope (four parameters).

CC(C)(c1ccc(-c2ccc(OCC3CC(N4CC5(C4)CS(=O)(=O)C5)C3)cc2)cc1)c1cc(Cl)c(OCCCl)c(C#N)c1 (centres unmarked) [Compound 230]
IC50: 520 nM

CC(C)(c1ccc(-c2ccc(/C=C/c3cnc(N4CC5(C4)CS(=O)(=O)C5)nc3)cc2)cc1)c1cc(Cl)c(OCCCl)c(C#N)c1 [Compound 235]
IC50: 610 nM

CC(C)(c1ccc(-c2ccc(OCc3ccnc(N=S4(=O)CCN(CC(F)F)CC4)n3)cc2)cc1)c1cc(Cl)c(OCCCl)c(C#N)c1 [Compound 239]
IC50: 1010 nM

CC(C)(c1ccc(-c2ccc(C#Cc3ccnc(N=S4(=O)CCCC4)n3)cc2)cc1)c1cnc2c(cnn2CCCl)c1 [Compound 240]
IC50: 650 nM

CC(C)(c1ccc(-c2ccc(OCc3ccnc(N=S4(=O)CCN(CCC(F)(F)F)CC4)n3)cc2)cc1)c1cc(Cl)c(OCCCl)c(C#N)c1 [Compound 241]
IC50: 790 nM

CC(C)(c1ccc(-c2ccc(OCc3ccnc(N=S4(=O)CCN(C5CC5)CC4)n3)cn2)cc1)c1cc(Cl)c(OCCCl)c(C#N)c1 [Compound 250]
IC50: 860 nM

CC(C)(c1ccc(-c2ccc(OCc3ccnc(N=S4(=O)CCN(CC(O)C(F)(F)F)CC4)n3)cc2)cc1)c1cc(Cl)c(OCCCl)c(C#N)c1 (centres unmarked) [Compound 252]
IC50: 720 nM

CNC(=O)CN1CCS(=O)(=Nc2nccc(COc3ccc(-c4ccc(C(C)(C)c5cc(Cl)c(OCCCl)c(C#N)c5)cc4)cc3)n2)CC1 [Compound 255]
IC50: 560 nM

CC(C)(c1ccc(-c2ccc(OCc3ccnc(N=S4(=O)CCN(CC(F)(F)F)CC4)n3)nc2)cc1)c1cc(Cl)c(OCCCl)c(C#N)c1 [Compound 261]
IC50: 830 nM

CC(C)(c1ccc(-c2ccc(OCc3ccnc(N4CCCS4(=O)=O)n3)cc2)cc1)c1cc(Cl)c(OCCCl)c(C#N)c1 [Compound 265]
IC50: 540 nM

CC(C)(c1ccc(-c2ccc(OCc3ccnc(N4CCC(S(C)(=O)=O)C4)n3)cc2)cc1)c1cc(Cl)c(OCCCl)c(C#N)c1 (centres unmarked) [Compound 266]
IC50: 770 nM

CC(C)(c1ccc(-c2ccc(Oc3ccc(-c4ccnc(P(C)(C)=O)n4)cc3)cc2)cc1)c1cc(Cl)c(OCCCl)c(C#N)c1 [Compound 267]
IC50: 170 nM

CC(C)(c1ccc(-c2ccc(/C=C\c3cnc(P(C)(C)=O)nc3)c(C#N)c2)cc1)c1cc(Cl)c(OCCCl)c(C#N)c1 [Compound 269]
IC50: 390 nM

CC(C)(c1ccc(-c2ccc(Oc3ccc(-c4cnc(P(C)(C)=O)nc4)cc3)cc2)cc1)c1cc(Cl)c(OCCCl)c(C#N)c1 [Compound 270]
IC50: 890 nM

CC(C)(c1ccc(-c2cnc(OCc3ccc(-c4cnc(P(C)(C)=O)nc4)cc3)nc2)cc1)c1cc(Cl)c(OCCCl)c(C#N)c1 [Compound 274]
IC50: 130 nM

CC(C)(c1ccc(-c2ccc(OCc3ccc(-c4cnc(P(C)(C)=O)nc4)cc3)cn2)cc1)c1cc(Cl)c(OCCCl)c(C#N)c1 [Compound 275]
IC50: 460 nM

CC(C)(c1ccc(-c2ccc(OCc3ccc(-c4cnc(P(C)(C)=O)nc4)cc3)nc2)cc1)c1cc(Cl)c(OCCCl)c(C#N)c1 [Compound 277]
IC50: 1310 nM

CC(C)(c1ccc(-c2ccc(OCc3ccnc(P(C)(C)=O)n3)cc2)cc1)c1cc(F)c2c(cnn2CCCl)c1 [Compound 280]
IC50: 1270 nM

Cn1ncc2c1CCS(=O)(=Nc1nccc(COc3ccc(-c4ccc(C(C)(C)c5cc(Cl)c(OCCCl)c(C#N)c5)cc4)cc3)n1)C2 (centres unmarked) [Compound 281]
IC50: 500 nM

CC(C)(c1ccc(-c2ccc(C#Cc3ncc(P(C)(C)=O)cn3)cc2)cc1)c1cc(Cl)c(OCCCl)c(C#N)c1 [Compound 282]
IC50: 820 nM

CC(C)(c1ccc(-c2ccc(OCc3ccnc(N=S4(=O)CCN(CC(O)CC(F)(F)F)CC4)n3)cc2)cc1)c1cc(Cl)c(OCCCl)c(C#N)c1 (centres unmarked) [Compound 285]
IC50: 210 nM

CC(C)(c1ccc(-c2ccc(OCc3ccnc(N=S4(=O)CCN(C[C@@H](O)C(F)(F)F)CC4)n3)cc2)cc1)c1cc(Cl)c(OCCCl)c(C#N)c1 [Compound 286]
IC50: 700 nM

CC(C)(c1ccc(-c2ccc(OCc3ccnc(N=S4(=O)CCN(C[C@H](O)C(F)(F)F)CC4)n3)cc2)cc1)c1cc(Cl)c(OCCCl)c(C#N)c1 [Compound 287]
IC50: 670 nM
